The values below come from patent US20160175316A1, “METHOD OF PREVENTING OR TREATING ORGAN, HEMATOPOIETIC STEM CELL OR BONE MARROW TRANSPLANT REJECTION” (AbbVie Inc., priority 2006, published 2016).

Entries after “also recorded” stand apart in the source; their conditions may differ.

For data set [1], the system named is activated T cells. Nature of the data set: Mouse mixed lymphocyte model, 3H-Thymidine incorporation. It is filed as cell-based. Conditions: Balb/c and C57BL/6 splenocytes co-cultured for 2 days, 6 hour pulse with 3H-Thy. The method, then: Inhibition of ^3H-Thymidine incorporation by EXAMPLE A. 5×10^5 Balb/c and C57BL/6 splenocytes were co-cultured for 2 days with EXAMPLE A, its enantiomer or vehicle control before a 6 hour pulse with ^3H-Thy.

Data set [2] deals with activated murine B cells. Nature of the data set: LPS-stimulated B cell proliferation, 3H-Thy pulse. The settings on record: B6 B cells, in vitro stimulation with low doses of LPS, 6 hour pulse. It is filed as cell-based, mouse. The method, then: Untouched B cells from B6 mouse splenocytes were isolated by MACS separation. 2×10^5B cells were cultured with EXAMPLE A, its enantiomer or vehicle control and […] of lipopolysaccharide (LPS) before a 6 hour pulse with ^3H-Thy. Control vs EXAMPLE A (P<0.05 1-way ANOVA using Dunnett's post-hoc). One representative experiment (n=2) is shown.

For data set [3], the system named is naïve and memory T cells. Nature of the data set: In vivo depletion of naïve and memory T cells in spleen and lymph nodes (flow cytometry). On the set-up: species or system C57BL/6 mice. The method, then:
To determine if T cell sensitivity to ABT-737 treatment was predicated on the maturation or differentiation state of a T cell, C57BL/6 mice were treated for 14 consecutive days with either ABT-737 (75 mg/kg) or vehicle control. Spleen and lymph nodes were recovered and the numbers of […]), central memory ([…] effector memory (CD62LloCD44hi) cells determined by flow cytometry.
For orientation: In flow cytometry, cells or beads pass a laser one at a time.

Data set [4] relates to cytotoxic T lymphocytes (CTL). Nature of the data set: In vivo CTL response after OVA priming. On the set-up: species or system C57BL/6 mice. Conditions: 75 mg/kg daily for a week, OVA priming on day 6, assay seven days after priming. The method, then: Having established the impact of ABT-737 on the steady state immune system, its effects on the development of specific immune responses were next examined. C57BL/6 mice were treated daily for a week with either ABT-737 (75 mg/kg) or vehicle control and on treatment day 6, mice were primed with ovalbumin (OVA) antigen in the form of irradiated OVA-coated H-2Kb+ splenocytes (OCS), a protocol known to induce cytotoxic T lymphocytes (CTL). Seven days after T-cell priming, in vivo CTL responses were assayed by measuring the persistence in spleen and lymph nodes of OVA peptide pulsed target cells, CFSE labeled and injected intravenously.

Data set [5] relates to NP-specific B cell subsets (germinal center, memory and plasma cells). Put plainly: In vivo B cell response to NP-KLH immunization. On the set-up: species or system mice. The settings on record: for memory B cell compartment, established memory: treatment started at day 40 after immunization, 14 days, analyzed day 54; for frequency of ASC in the spleen or the bone marrow, established plasma cells: treatment starting day 40 after immunization. The method, then: Mice were immunized with NP-KLH in alum by intraperitoneal injection and then treated with ABT-737 (75 mg/kg) or vehicle control for 14 consecutive days, starting 5 days after immunization. On day 19 after immunization, the numbers of NP-specific B cell subsets (germinal center (GC), memory and plasma cells) were quantified. As depicted in FIG. 5A, FIG. 5B, FIG. 5C, FIG. 5D, FIG. 5E, and FIG. 5F, antigen-specific B cells were detected by flow cytometry on the basis of surface staining for B220, NP and IgG1. […] To determine if memory cells were sensitive during formation or maintenance, mice were immunized and memory was allowed to form before ABT-737 treatment started at day 40 after immunization. The mice were analyzed after 14 days of treatment with ABT-737 or vehicle, i.e., day 54 after immunization. […] Antibody secreting cells (ASC) are also generated during the B cell response to antigen, secreting antibodies specific for the antigen. In the later stages of T cell dependent immune responses, ASC originate in the GC, then migrate to the bone marrow where they compete for access to survival niches in order to become long-lived plasma cells.

The test system of data set [6] is islet allografts in spontaneously diabetic (RIP-Kb/CBA; H-2k) mice. Nature of the data set: Allogenic islet graft rejection in diabetic mice. Conditions: 50 mg/kg intra-peritoneal daily, 14 days; for islet allograft survival versus vehicle treated recipients: graft on day 6. It is filed as in vivo, mouse. How it is done: Non-immune diabetic mice were treated daily for 14 consecutive days with either ABT-737 (50 mg/kg) or vehicle control. On treatment day 6, mice received an allogenic grant of F1(B6×SJL) islets transplanted under the kidney capsule. Blood glucose was measured at various times post-transplantation. Grafts were deemed successful if normal blood glucose (<15 mmol/L) levels were achieved within 4 days post-transplantation.
Viable islets were handpicked under dissecting microscope, pooled and cultured overnight at a density of 200-300 islets/3.5 cm Petri dish in 1.1 ml DME supplemented with 10% FCS at 37° C.; 10% CO2. The following day viable islets were handpicked into aliquots of 400 (of an equivalent size distribution) before grafting into recipient mice.
Spontaneously diabetic (RIP-Kb/CBA; H-2^k) (Sutherland, R. M., Mountford, J. N., Allison, J., Harrison, L. C., & Lew, A. M., The non-immune RIP-Kb mouse is a useful host for islet transplantation, as the diabetes is spontaneous, mild and predictable. Int J Exp Diabetes Res, 2002, 3:37-45) male mice were treated daily for five consecutive days either with ABT-737 (50 mg/kg) or vehicle control via intra-peritoneal injection as described by Mason, K. D., Carpinelli, M. R., Fletcher, J. I., Collinge, J. E., Hilton, A. A., Ellis, S., Kelly, P. N., Ekert, P. G., Metcalf, D., Roberts, A. W., et al. Programmed anulear cell death delimits platelet life span. Cell (2007) 128:1173-1186. On day 6, mice received an allograft under the left kidney capsule consisting of 400 purified mouse pancreatic islets isolated from male and female donors [(C57Bl/6×SJL) F1; H-2^b,s]. Treatment was then continued daily for 8 days post transplantation. Graft function was monitored by diabetes reversal, determined by measuring blood glucose via tail vein bleed.

Data set [7] has as its system human pancreatic islets. Nature of the data set: Predicted toxicity to pancreatic islets from Bcl-2 family expression profile. Conditions: predicted from expression profile of Bcl-2 family proteins such as Mcl-1.
The mark [8] stands for this setting: 75 mg/kg for 14 days starting 5 days after immunization, day 19.
Where [9] appears, read: treatment starting on day 5 of the response.

Take `CN(C)CC[C@H](CSc1ccccc1)Nc1ccc(S(=O)(=O)NC(=O)c2ccc(N3CCN(Cc4ccccc4-c4ccc(Cl)cc4)CC3)cc2)cc1[N+](=O)[O-]` [EXAMPLE A, N-(4-(4-((4′-chloro(1,1′-biphenyl)-2-yl)methyl)piperazin-1-yl)benzoyl)-4-(((1R)-3-(dimethylamino)-1-((phenylsulfanyl)methyl)propyl)amino)-3-nitrobenzenesulfonamide]: in data set [1], the “proliferation of activated T cells (3H-Thymidine incorporation)” value is “inhibits proliferation of activated T cells in a dose dependent manner”. In data set [2], the “proliferation of activated murine B cells (3H-Thy)” value is listed as “inhibits proliferation of activated murine B cells”. For the same compound, in data set [3] (75 mg/kg, 14 consecutive days), the “central and effector memory CD4+ and effector CD8+ T cells in spleen” value is reported as “remain refractory”; the “numbers of naïve and memory T cells (CD4+ and CD8+) in lymph nodes” value was “significantly reduced”; the “numbers of naïve cells and CD8+ central memory T cells in spleen” value was “effectively reduced”. Further, the “lymphocyte and dendritic cell sub-populations” value in data set [3] (mouse immune system, summary statement) is “depleted selective lymphocyte and dendritic cell sub-populations”. Also, in data set [4], the CTL activity result is “significantly less CTL activity” and the “reduction in specific target lysis compared to vehicle treated controls” value is “approximately 4 fold”. In data set [5] (setting [8]), the “GC (CD38lo) B cells” value was “unaffected”; the “memory (CD38hi) B cells” value is given as “susceptive”; the “overall number of antigen-specific B cells (B220, NP, IgG1)” value is on record as “no significant difference”. The “GC (CD38lo) B cells” value in data set [5] (75 mg/kg for 14 days starting 5 days after immunization, day 19, listed as ABT-737) is listed as “refractory”. Moreover, in data set [5], the “memory B cell compartment, established memory” value is “inhibited the persistence of memory B cells” and the “frequency of ASC in the spleen or the bone marrow, established plasma cells” value is on record as “unaffected”. In data set [5] (listed as ABT-737), the “memory B cell compartment, established memory” value is listed as “still affected” and the “frequency of ASC in the spleen or the bone marrow, established plasma cells” value was “no reduction”. In addition, in data set [5] (setting [9]), the “frequency of antigen-specific IgG1 ASC in the spleen” value is “significantly reduced”; the “frequency of total and high affinity NP-specific ASC in the bone marrow” value is listed as “marked reduction”. Besides, the “islet allograft survival versus vehicle treated recipients” value in data set [6] is on record as “sufficiently immunosuppressive to allow long-term survival of pancreatic allografts”. Further, in data set [6] (listed as ABT-737), the “islet allograft survival versus vehicle treated recipients” value is given as “functioned significantly longer; also recorded: survived longer”. Moreover, the “duration of allograft function (all mice, n=5)” value in data set [6] (experiment terminated at 100 days) is on record as ≥ 100 days post-transplantation. The “toxicity to human pancreatic islets” value in data set [7] is recorded as “low toxicity”.
